From patent US12187720B2, “Compounds for treatment of cancer” (ONCTERNAL THERAPEUTICS, INC., priority 2010, dated 2025)
Read-outs that look alike come from different tables or passages of the source.

How the values were obtained:
LNCaP = experiment: SRB cytotoxicity assay, LNCaP prostate cancer cells; format: cell-based, human
Description: (§1) Cells were stained with SRB solution.

PPC-1 = experiment: SRB cytotoxicity assay, PPC-1 prostate cancer cells; format: cell-based, human
Description: as §1

DU 145 = experiment: SRB cytotoxicity assay, DU 145 prostate cancer cells; format: cell-based; conditions: Homo sapiens
Description: as §1

PC-3 = experiment: SRB cytotoxicity assay, PC-3 prostate cancer cells; format: cell-based, human
Description: as §1

[1] = tested on: melanoma and prostate cancer cell lines; experiment: SRB cytotoxicity, summary or average over melanoma and prostate cancer cell lines; format: cell-based; conditions: for IC50: average of all seven cell lines
[2] = Homo sapiens, LNCaP, Table 6A, read-out: IC50 LNCaP
[3] = Homo sapiens, PPC-1, Table 6A, read-out: IC50 PPC-1
[4] = Table 6A, read-out: IC50 DU 145
[5] = Homo sapiens, PC-3, Table 13A, read-out: inhibitory effects PC3
[6] = Homo sapiens, PPC-1, Table 13A, read-out: inhibitory effects PPC1
[7] = Table 13A, read-out: inhibitory effects DU145
[8] = Homo sapiens, LNCaP, Table 13A, read-out: inhibitory effects LNCaP
[9] = Homo sapiens, PPC-1, Table 13B, read-out: inhibitory effects PPC1
[10] = Table 13B, read-out: inhibitory effects DU145
[11] = Homo sapiens, LNCaP, Table 13B, read-out: inhibitory effects LNCaP
[12] = Homo sapiens, PC-3, Table 13B, read-out: inhibitory effects PC3

COc1cc(C(=O)c2csc(-c3ccccc3)n2)cc(OC)c1OC(=O)CCl [compound 18]
IC50 (LNCaP; [2]): ~10 µM

COc1ccc(C(=O)n2ccnc2-c2ccc(F)cc2)cc1 [compound 24]
IC50 (PPC-1; [3]): > 10 µM | IC50 (DU 145; [4]): > 10 µM | IC50 (LNCaP; [2]): > 10 µM | IC50 (PC-3; Homo sapiens, PC-3, Table 6A, read-out: IC50 PC-3): > 10 µM

COc1cc(C(=O)c2nc(-c3ccccc3)c[nH]2)cc(OC)c1OC [70a, (4-phenyl-1H-imidazol-2-yl)(3,4,5-trimethoxyphenyl)methanone]
IC50 (PC-3; [5]): 0.014 µM

COc1cc(OC)cc(C(=O)c2c[nH]c(-c3ccccc3)n2)c1 [12ad, (3,5-dimethoxyphenyl)(2-phenyl-1H-imidazol-4-yl)methanone]
IC50 [1]: 3.1 µM

O=C(c1csc(-c2cc(F)c(F)c(F)c2)n1)c1c(F)c(F)c(F)c(F)c1F [compound 16]
IC50 (LNCaP; [2]): > 10 µM

CCCc1[nH]c(C(=O)c2cc(OC)c(OC)c(OC)c2)nc1-c1ccccc1 [70l, (4-phenyl-5-propyl-1H-imidazol-2-yl)(3,4,5-trimethoxyphenyl)methanone]
IC50 (PPC-1; [6]): 11.4 µM | IC50 (DU 145; [7]): 16.4 µM | IC50 (LNCaP; [8]): 3.09 µM | IC50 (PC-3; [5]): 12.4 µM

COc1cc(/C=C\c2csc(-c3ccccc3)n2)cc(OC)c1OC [3a, (Z)-2-Phenyl-4-(3,4,5-trimethoxystyryl)thiazole]
antiproliferative activity in words [1]: lost activity

COc1cc(C(=O)[C@H]2COC(c3ccccc3)=N2)cc(OC)c1OC [35a, (2R)-(2-Phenyl-4,5-dihydro-oxazol-4-yl)-(3,4,5-trimethoxy-phenyl)-methanone]
antiproliferative activity in words [1]: hundreds of nanomolar range

COc1cc(C(=O)c2nc(-c3ccc(N(C)C)cc3)c[nH]2)cc(OC)c1OC [70h, (4-(4-(dimethylamino)phenyl)-1H-imidazol-2-yl)(3,4,5-trimethoxyphenyl)methanone]
IC50 (PPC-1; [6]): 0.12 µM | IC50 (DU 145; [7]): 0.263 µM | IC50 (LNCaP; [8]): 0.096 µM | IC50 (PC-3; [5]): 0.117 µM

COc1cc(C(=O)c2nc(-c3ccccc3)cn2C)cc(OC)c1OC [70m, (1-methyl-4-phenyl-1H-imidazol-2-yl)(3,4,5-trimethoxyphenyl)methanone]
IC50 (PC-3; [5]): 0.016 µM

COc1cc(C(=O)c2csc(-c3ccccc3)n2)cc(OC)c1OCc1ccccc1 [compound 9]
IC50 (LNCaP; [2]): ~10 µM

COc1ccc(C(=O)c2nc(-c3ccc(OC)cc3)c[nH]2)cc1 [70w, (4-methoxyphenyl)(4-(4-methoxyphenyl)-1H-imidazol-2-yl)methanone]
IC50 (PPC-1; [9]): 38.1 µM | IC50 (DU 145; [10]): 9.39 µM | IC50 (LNCaP; [11]): 6.41 µM | IC50 (PC-3; [12]): 23.4 µM

O=C(c1cc(O)c(O)c(O)c1)c1csc(-c2ccccc2)n1 [compound 33]
IC50 (LNCaP; [2]): > 2 µM

O=C(c1ccc2c(c1)OCO2)N1CCC(c2ccccc2)CC1 [compound 19]
IC50 (LNCaP; [2]): > 20 µM

Cc1ccc(-c2nc(C(=O)c3ccc(F)cc3)cn2S(=O)(=O)c2ccccc2)cc1 [11db, (4-fluorophenyl)(1-(phenylsulfonyl)-2-(p-tolyl)-1H-imidazol-4-yl)methanone]
IC50 [1]: 0.111 µM

COc1ccc(-c2nc(C(=O)c3cc(OC)c(OC)c(OC)c3)cn2S(=O)(=O)c2ccccc2)cc1OC [11ha, (2-(3,4-dimethoxyphenyl)-1-(phenylsulfonyl)-1H-imidazol-4-yl)(3,4,5-trimethoxyphenyl)methanone]
IC50 [1]: 0.268 µM

CNCc1ccc(-c2nc(C(=O)c3cc(OC)c(OC)c(OC)c3)cs2)cc1.Cl [2s, (2-(4-((Methylamino)methyl)phenyl)thiazol-4-yl)(3,4,5-trimethoxyphenyl)methanone hydrochloride]
antiproliferative activity in words [1]: abrogated activity

COc1cc(C(=O)c2csc(-c3ccc(CN(C)C)cc3)n2)cc(OC)c1OC.Cl [2u, (2-(4-((Dimethylamino)methyl)phenyl)thiazol-4-yl)(3,4,5-trimethoxyphenyl)methanone hydrochloride]
antiproliferative activity in words [1]: abrogated activity

Cc1ccc(-c2nc(C(=O)c3ccc(F)cc3)cs2)cc1 [compound 11]
IC50 (PPC-1; [3]): ~10 µM | IC50 (DU 145; [4]): ~10 µM | IC50 (LNCaP; [2]): > 10 µM

COc1cc(C(=O)c2nc(-c3ccccc3)cn2C2CCCC2)cc(OC)c1OC [70p, (1-cyclopentyl-4-phenyl-1H-imidazol-2-yl)(3,4,5-trimethoxyphenyl)methanone]
IC50 (PC-3; [5]): 0.056 µM

CN(C)c1ccc(-c2nc(C(=O)c3ccc(F)cc3)cn2S(=O)(=O)c2ccccc2)cc1 [11gb, (2-(4-(dimethylamino)phenyl)-1-(phenylsulfonyl)-1H-imidazol-4-yl)(4-fluorophenyl)methanone]
IC50 [1]: 0.087 µM

O=C(c1ccc(F)cc1)c1csc(-c2ccccc2)n1 [compound 12]
IC50 (LNCaP; [2]): > 10 µM

O=C(c1cc(O)c(O)c(O)c1)c1c[nH]c(-c2ccc(Cl)cc2)n1 [13fa, (2-(4-chlorophenyl)-1H-imidazol-4-yl)(3,4,5-trihydroxyphenyl)methanone]
IC50 [1]: 3.89 µM

O=C(c1ccc(OC(F)(F)F)cc1)c1csc(-c2ccccc2)n1 [compound 13]
IC50 (LNCaP; [2]): > 10 µM

COc1cc(C(=O)c2c[nH]c(-c3ccc(OCc4ccccc4)cc3)n2)cc(OC)c1OC [12ja, (2-(4-(benzyloxy)phenyl)-1H-imidazol-4-yl)(3,4,5-trimethoxyphenyl)methanone]
IC50 [1]: 7.3 µM

COc1cc(C(=O)c2nc(-c3ccc(F)cc3)c[nH]2)cc(OC)c1OC [70b, (4-(4-fluorophenyl)-1H-imidazol-2-yl)(3,4,5-trimethoxyphenyl)methanone]
IC50 (PPC-1; [6]): 0.013 µM | IC50 (DU 145; [7]): 0.353 µM | IC50 (LNCaP; [8]): 0.114 µM | IC50 (PC-3; [5]): 0.196 µM

O=C(c1ccc(F)cc1)c1csc(-c2ccc(F)cc2)n1 [compound 14]
IC50 (LNCaP; [2]): > 10 µM

O=C(c1ccc(Cl)cc1)c1nc(-c2ccc(Cl)cc2)c[nH]1 [70s, (4-chlorophenyl)(4-(4-chlorophenyl)-1H-imidazol-2-yl)methanone]
IC50 (PPC-1; [9]): > 50 µM | IC50 (DU 145; [10]): > 50 µM | IC50 (LNCaP; [11]): > 50 µM | IC50 (PC-3; [12]): > 50 µM

O=C(c1ccc(C(F)(F)F)cc1)c1nc(-c2ccc(C(F)(F)F)cc2)c[nH]1 [70u, (4-(trifluoromethyl)phenyl)(4-(4-(trifluoromethyl)phenyl)-1H-imidazol-2-yl)methanone]
IC50 (PPC-1; [9]): > 50 µM | IC50 (DU 145; [10]): > 50 µM | IC50 (LNCaP; [11]): > 50 µM | IC50 (PC-3; [12]): > 50 µM

COc1cc(C(=O)c2nc(-c3ccccc3)cn2Cc2ccccc2)cc(OC)c1OC [70o, (1-benzyl-4-phenyl-1H-imidazol-2-yl)(3,4,5-trimethoxyphenyl)methanone]
IC50 (PC-3; [5]): 0.072 µM

COc1cc(C(=O)c2nc(-c3ccccc3)c(C)[nH]2)cc(OC)c1OC [70j, (5-methyl-4-phenyl-1H-imidazol-2-yl)(3,4,5-trimethoxyphenyl)methanone]
IC50 (PPC-1; [6]): 0.86 µM | IC50 (DU 145; [7]): 2 µM | IC50 (LNCaP; [8]): 0.938 µM | IC50 (PC-3; [5]): 1.62 µM

COc1cc(C(=O)c2cccc(-c3ccccc3)c2)cc(OC)c1OC [1a, Biphenyl-3-yl(3,4,5-trimethoxyphenyl)methanone]
antiproliferative activity in words [1]: hundreds of nanomolar range

Cc1ccc(C(=O)c2nc(-c3ccc(C)cc3)c[nH]2)cc1 [70v, p-tolyl(4-p-tolyl-1H-imidazol-2-yl)methanone]
IC50 (PPC-1; [9]): 2.41 µM | IC50 (DU 145; [10]): 6.54 µM | IC50 (LNCaP; [11]): 3.76 µM | IC50 (PC-3; [12]): 5.16 µM

O=C(c1ccc(F)cc1)c1c[nH]c(-c2ccc(OCc3ccccc3)cc2)n1 [12jb, (2-(4-(benzyloxy)phenyl)-1H-imidazol-4-yl)(4-fluorophenyl)methanone]
fold more activity than the comparator ([1]; 2e-cis vs 2e-trans, 12jb vs 12kb): 440 fold | IC50 [1]: 0.075 µM

4-Methoxyphenyl(4-(3,4,5-trimethoxyphenyl)-1H-imidazol-2-yl)methanone and 4-methoxyphenyl(5-(3,4,5-trimethoxyphenyl)-1H-imidazol-2-yl)methanone [70y]
IC50 (PPC-1; Table 13B, read-out: inhibitory effects PPC1): 5.69 µM | IC50 (LNCaP; Table 13B, read-out: inhibitory effects LNCaP): 0.709 µM | IC50 (PC-3; Table 13B, read-out: inhibitory effects PC3): 10.4 µM

CCn1cc(-c2ccccc2)nc1C(=O)c1cc(OC)c(OC)c(OC)c1 [70n, (1-ethyl-4-phenyl-1H-imidazol-2-yl)(3,4,5-trimethoxyphenyl)methanone]
IC50 (PC-3; [5]): 0.025 µM

COc1cc(C(=O)c2csc(-c3ccccc3)n2)cc(OC)c1OC(=O)C(F)(F)F [compound 23]
IC50 (LNCaP; [2]): ~10 µM

COc1cc(C(=O)c2coc(-c3ccccc3)n2)cc(OC)c1OC [36a, (2-Phenyl-oxazol-4-yl)-(3,4,5-trimethoxy-phenyl)-methanone]
antiproliferative activity in words [1]: hundreds of nanomolar range

COc1cc(C(=O)c2cn(S(=O)(=O)c3ccccc3)c(-c3ccc(N(C)C)cc3)n2)cc(OC)c1OC [11ga, (2-(4-(dimethylamino)phenyl)-1-(phenylsulfonyl)-1H-imidazol-4-yl)(3,4,5-trimethoxyphenyl)methanone]
IC50 [1]: 0.285 µM

O=C(c1ccc(F)cc1)c1c[nH]c(-c2ccccc2)n1 [12af, (4-fluorophenyl)(2-phenyl-1H-imidazol-4-yl)methanone]
IC50 [1]: 0.91 µM

O=C(c1ccc(F)cc1)N1CCC(c2ccccc2)CC1 [compound 22]
IC50 (LNCaP; [2]): > 20 µM

Cc1ccc(-c2nc(C(=O)c3ccc(F)cc3)c[nH]2)cc1 [12db, (4-fluorophenyl)(2-(p-tolyl)-1H-imidazol-4-yl)methanone]
IC50 [1]: 0.109 µM

COc1cc(C(O)c2csc(-c3ccccc3)n2)cc(OC)c1OC (stereo not shown) [2b, (2-Phenylthiazol-4-yl)(3,4,5-trimethoxyphenyl)methanol]
antiproliferative activity in words [1]: inactive

COc1cc(-c2nc(C(=O)c3ccc(F)cc3)cn2C(=O)c2ccc(F)cc2)cc(OC)c1OC [compound 30]
IC50 (LNCaP; [2]): > 10 µM
